Assay results: the NIST ThermoML archive (doi:10.1021/je050052+)

Test: excess molar enthalpy (molar enthalpy of mixing); xn = mol fraction of the nth substance listed
Settings: Liquid, Flow calorimetry

COC(=O)OC [dimethyl carbonate] + CCO
Settings	excess molar enthalpy [kcal/mol]
298.15 K, 1000 kPa, x1 = 0.05	0.1012
298.15 K, 1000 kPa, x1 = 0.1	0.1881
298.15 K, 1000 kPa, x1 = 0.15	0.2526
298.15 K, 1000 kPa, x1 = 0.2	0.3048
298.15 K, 1000 kPa, x1 = 0.25	0.3456
298.15 K, 1000 kPa, x1 = 0.3	0.3728
298.15 K, 1000 kPa, x1 = 0.35	0.3921
298.15 K, 1000 kPa, x1 = 0.4	0.4023
298.15 K, 1000 kPa, x1 = 0.45	0.4067
298.15 K, 1000 kPa, x1 = 0.5	0.4047
298.15 K, 1000 kPa, x1 = 0.55	0.3955
298.15 K, 1000 kPa, x1 = 0.6	0.3776
298.15 K, 1000 kPa, x1 = 0.65	0.3579
298.15 K, 1000 kPa, x1 = 0.7	0.3311
298.15 K, 1000 kPa, x1 = 0.75	0.2963
298.15 K, 1000 kPa, x1 = 0.8	0.2542
298.15 K, 1000 kPa, x1 = 0.85	0.2024
313.15 K, 100 kPa, x1 = 0.0521	0.0984
313.15 K, 100 kPa, x1 = 0.098	0.1854
313.15 K, 100 kPa, x1 = 0.1514	0.2672
313.15 K, 100 kPa, x1 = 0.1988	0.3216
313.15 K, 100 kPa, x1 = 0.2488	0.3685
313.15 K, 100 kPa, x1 = 0.3012	0.4033
313.15 K, 100 kPa, x1 = 0.3519	0.4273
313.15 K, 100 kPa, x1 = 0.4008	0.4431
313.15 K, 100 kPa, x1 = 0.4516	0.447
313.15 K, 100 kPa, x1 = 0.5007	0.4465
313.15 K, 100 kPa, x1 = 0.5515	0.4379
313.15 K, 100 kPa, x1 = 0.6003	0.4197
313.15 K, 100 kPa, x1 = 0.6506	0.3969
313.15 K, 100 kPa, x1 = 0.699	0.3683
313.15 K, 100 kPa, x1 = 0.7513	0.3253
313.15 K, 100 kPa, x1 = 0.7987	0.2835
313.15 K, 100 kPa, x1 = 0.8497	0.2287
313.15 K, 100 kPa, x1 = 0.9012	0.1572
313.15 K, 100 kPa, x1 = 0.9504	0.0808
313.15 K, 1000 kPa, x1 = 0.052	0.1039
313.15 K, 1000 kPa, x1 = 0.0979	0.1898
313.15 K, 1000 kPa, x1 = 0.1513	0.2697
313.15 K, 1000 kPa, x1 = 0.1986	0.3254
313.15 K, 1000 kPa, x1 = 0.2487	0.3721
313.15 K, 1000 kPa, x1 = 0.3011	0.4066
313.15 K, 1000 kPa, x1 = 0.3517	0.4296
313.15 K, 1000 kPa, x1 = 0.4006	0.4435
313.15 K, 1000 kPa, x1 = 0.4515	0.4496
313.15 K, 1000 kPa, x1 = 0.5006	0.4474
313.15 K, 1000 kPa, x1 = 0.5513	0.4373
313.15 K, 1000 kPa, x1 = 0.6002	0.4211
313.15 K, 1000 kPa, x1 = 0.6504	0.3971
313.15 K, 1000 kPa, x1 = 0.6988	0.3677
313.15 K, 1000 kPa, x1 = 0.7511	0.3259
313.15 K, 1000 kPa, x1 = 0.7986	0.2824
313.15 K, 1000 kPa, x1 = 0.8496	0.2284
313.15 K, 1000 kPa, x1 = 0.9011	0.1552
313.15 K, 1000 kPa, x1 = 0.9504	0.0781
313.15 K, 10000 kPa, x1 = 0.0517	0.09719
313.15 K, 10000 kPa, x1 = 0.1019	0.1904
313.15 K, 10000 kPa, x1 = 0.1505	0.2626
313.15 K, 10000 kPa, x1 = 0.2019	0.3232
313.15 K, 10000 kPa, x1 = 0.2517	0.3678
313.15 K, 10000 kPa, x1 = 0.2998	0.4004
313.15 K, 10000 kPa, x1 = 0.3503	0.4236
313.15 K, 10000 kPa, x1 = 0.3992	0.4379
313.15 K, 10000 kPa, x1 = 0.45	0.4441
313.15 K, 10000 kPa, x1 = 0.4991	0.4423
313.15 K, 10000 kPa, x1 = 0.5498	0.4331
313.15 K, 10000 kPa, x1 = 0.5987	0.4174
313.15 K, 10000 kPa, x1 = 0.6491	0.394
313.15 K, 10000 kPa, x1 = 0.7005	0.3625
313.15 K, 10000 kPa, x1 = 0.75	0.3257
313.15 K, 10000 kPa, x1 = 0.8004	0.279
313.15 K, 10000 kPa, x1 = 0.8489	0.2261
313.15 K, 10000 kPa, x1 = 0.9006	0.1567
313.15 K, 10000 kPa, x1 = 0.9501	0.0768
328.15 K, 1000 kPa, x1 = 0.05	0.1153
328.15 K, 1000 kPa, x1 = 0.1	0.2147
328.15 K, 1000 kPa, x1 = 0.15	0.2918
328.15 K, 1000 kPa, x1 = 0.2	0.3565
328.15 K, 1000 kPa, x1 = 0.25	0.4091
328.15 K, 1000 kPa, x1 = 0.3	0.4447
328.15 K, 1000 kPa, x1 = 0.35	0.4711
328.15 K, 1000 kPa, x1 = 0.4	0.4883
328.15 K, 1000 kPa, x1 = 0.45	0.4949
328.15 K, 1000 kPa, x1 = 0.5	0.4942
328.15 K, 1000 kPa, x1 = 0.55	0.4854
328.15 K, 1000 kPa, x1 = 0.6	0.47
328.15 K, 1000 kPa, x1 = 0.65	0.4467
328.15 K, 1000 kPa, x1 = 0.7	0.4113
328.15 K, 1000 kPa, x1 = 0.75	0.3653
328.15 K, 1000 kPa, x1 = 0.8	0.3136
328.15 K, 1000 kPa, x1 = 0.85	0.2508
328.15 K, 1000 kPa, x1 = 0.9	0.1742
328.15 K, 1000 kPa, x1 = 0.95	0.08759
